The results in this text go back to publication PMC4660985 (Biochemistry, 2015).

In data set [1] the test system is CC(C)CCC[C@@H](C)[C@H]1CC[C@H]2[C@@H]3[C@H](O)CC4=CC(=O)CC[C@]4(C)[C@H]3CC[C@]12C. Nature of the data set: steady-state turnover of purified enzyme, HPLC. It is filed as biochemical, Mycolicibacterium smegmatis. The following applies: heme.
In a further data set the target is CYP125A3 (Mycolicibacterium smegmatis, UniProt A0R4Y3). Nature of the data set: UV-vis spectral titration. Format: binding.
Sequence of CYP125A3 (A0R4Y3 whole entry): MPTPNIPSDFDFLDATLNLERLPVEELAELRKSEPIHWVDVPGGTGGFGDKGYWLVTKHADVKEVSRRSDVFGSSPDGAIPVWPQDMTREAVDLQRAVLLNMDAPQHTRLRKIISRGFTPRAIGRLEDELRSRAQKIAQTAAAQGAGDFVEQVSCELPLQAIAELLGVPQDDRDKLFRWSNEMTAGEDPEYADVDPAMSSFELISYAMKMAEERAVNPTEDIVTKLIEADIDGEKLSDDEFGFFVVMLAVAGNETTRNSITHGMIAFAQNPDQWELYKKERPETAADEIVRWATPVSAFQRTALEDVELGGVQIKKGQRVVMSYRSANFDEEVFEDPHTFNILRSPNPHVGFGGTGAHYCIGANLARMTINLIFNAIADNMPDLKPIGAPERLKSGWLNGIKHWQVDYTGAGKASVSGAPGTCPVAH
Data set [2] has as its target T1, CYP125A4 (Mycolicibacterium smegmatis, UniProt A0QY38).
T1 sequence (A0QY38 1-430): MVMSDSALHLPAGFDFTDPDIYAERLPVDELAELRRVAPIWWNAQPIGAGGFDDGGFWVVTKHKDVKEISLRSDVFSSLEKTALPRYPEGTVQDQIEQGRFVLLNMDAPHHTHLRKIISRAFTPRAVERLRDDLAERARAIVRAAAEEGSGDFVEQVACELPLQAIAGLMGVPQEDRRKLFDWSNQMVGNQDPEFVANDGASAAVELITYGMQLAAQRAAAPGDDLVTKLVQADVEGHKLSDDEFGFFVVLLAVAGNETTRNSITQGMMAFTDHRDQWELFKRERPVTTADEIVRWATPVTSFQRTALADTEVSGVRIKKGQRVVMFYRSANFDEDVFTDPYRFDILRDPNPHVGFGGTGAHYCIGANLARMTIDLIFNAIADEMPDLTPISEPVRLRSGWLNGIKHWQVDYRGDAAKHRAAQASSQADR
Nature of the data set: UV-vis spectral titration. It is filed as binding.

Data set [3] has as its target T1, CYP125A4. Nature of the data set: UV-vis partial type I spectral shift. It is filed as binding.
Data set [4] concerns CC(C)CCC[C@@H](C)[C@H]1CC[C@H]2[C@@H]3CCC4=CC(=O)CC[C@]4(C)[C@H]3CC[C@]12C. Nature of the data set: steady-state turnover of purified enzyme, HPLC. Format: biochemical, Mycolicibacterium smegmatis. Conditions: heme.

For the molecule “CYP125A4 Y87W (Mycolicibacterium smegmatis MC2 155; Y87W)”, in data set [1], the Km (in general, the substrate concentration at which the rate is half of its maximum) worked out at 5.1 ± 1.3 µM.
In the case of `CC(C)CCC[C@@H](C)[C@H]1CC[C@H]2[C@@H]3[C@H](O)C=C4C[C@@H](O)CC[C@]4(C)[C@H]3CC[C@]12C` [7α-hydroxycholesterol], the Kd (commonly the constant that tells how readily two partners part at equilibrium) is 32.9 ± 4.7 µM on CYP125A3 and 8.7 ± 0.5 µM on CYP125A4 [2].
For the molecule `CC(C)CCC[C@@H](C)[C@H]1CC[C@H]2[C@@H]3CC=C4C[C@@H](O)CC[C@]4(C)[C@H]3CC[C@]12C` [cholesterol], the “UV-vis partial type I spectral shift; C-26 oxidation by HPLC” value at CYP125A4 [3] was “Addition of cholesterol or 4-cholesten-3-one did induce a partial shift to the type I high-spin species”.
Turning to “CYP125A3 W83Y (Mycolicibacterium smegmatis MC2 155; W83Y)”, the Km in data set [4] was 24.1 ± 7.8 µM.
